In patent US7709514B2, “Therapeutic molecules and methods-1” (Cortical Pty Ltd, priority 2002, dated 2010):
Entries after “also recorded” stand apart in the source; their conditions may differ. Where two headings read alike, the source gives them in different places.

How the values were obtained:
[1] = tested on: antigen-specific T cell activation; experiment: antigen-specific (mBSA) activation of splenic T lymphocytes, 3H-thymidine incorporation; type: cell-based, mice; conditions: Mus musculus, T-cell, read-out: EC50, inhibition of T cell activation
Description: C57BL6/J male mice, aged 7-10 weeks old, were immunised with 200 μg of methylated bovine serum albumin (mBSA) dissolved in 20 μL of saline, emulsified in 200 μL of Freund's complete adjuvant (FCA) by subcutaneous injection. Seven (7) days later mice received a booster immunisation with 100 μg mBSA in 10 μL saline plus 100 μL FCA by subcutaneous injection. After a further seven (7) days mice were killed and spleens collected aseptically into Hanks buffered saline solution (HBSS). A single cell suspension was prepared in Petri dishes by flushing DMEM using a 26G needle and 2 mL syringe. The resulting cell suspension was centrifuged for 5-7 minutes and supernatant discarded. Erythrocytes were lysed using a solution containing 0.579% NH4Cl, 0.000037% EDTA, and 0.1% NaHCO3 in a 37° C. water bath. Tubes were then filled with DMEM and centrifuged for 5-7 minutes. The cell-containing pellet was then resuspended in DMEM containing 5% fetal calf serum TICS) and 0.05% 2-mercapto-ethanol at a concentration of 1×10^6 cells/mL and plated at 1×10^5 cells/well in 96-well plastic tissue culture plates. Test substances (compound or vehicle) were added and incubated for 1 hour in a 37° C., 5% CO2 incubator. The specific stimulating antigen, mBSA, was then added at 10-50 μg/ml and plates incubated for 30 hours in a 37° C., 5% CO2 incubator. Tritiated ^3H-thymidine was then added at a concentration of 0.5 μCi/well for a further 18 hours. Cells were harvested on a Packard cell harvester, and the harvested material added to 750 μL/tube scintillation fluid. Scintillation counts were read on a Wallac beta-emission counter.
The concentration at which T cell activation was suppressed by 50% compared to vehicle-only-treated cells (EC50) was calculated using Prism® software. […] Further compounds were also tested for their ability to inhibit antigen-specific T cell activation as a marker of the inhibition of the cytokine or biological activity of MIF using this assay. Table 5 lists the EC50 for each compound in this assay, performed with concentrations of mBSA of either 50 or 10 μg/ml.

[2] = tested on: IL-1-induced COX-2 expression; experiment: IL-1-induced COX-2 expression in S112 human dermal fibroblasts (MIF-dependent bioassay); type: cell-based
Description: The activity of compounds was studied in a bioassay utilising MIF-dependent activation of human dermal fibroblasts. […] IL-1-induced COX-2 expression is therefore a MIF-dependent event. […] Prior to experimentation, cells were seeded at 10^5 cells/ml in RPMI/0.1% BSA for 18 hours. […] After 6 hours, cells were collected and intracellular COX-2 protein determined by permeabilisation flow cytometry. […] Cellular fluorescence was determined using a flow cytometer. At least 5000 events were counted for each reading, each of which was performed in duplicate, and the results expressed in mean fluorescence intensity (MFI) after subtraction of negative control-labelled cell fluorescence. The effect of each compound was determined by subtracting the IL-1+compound-treated cell MFI from the IL-1-treated cell (control) MFI and expressed as % inhibition. In each case the % inhibition of IL-1-induced COX-2 expression is expressed as the mean, or mean±SEM where results are available from multiple experiments.

[3] = tested on: lymph node and splenic T cells; experiment: ex vivo antigen-specific T cell activation after in vivo treatment; design: species or system mice
Text: In vivo administration of such a compound might be expected to exert effects on T cell responsiveness even after the T cells have been removed from exposure to the compound, that is, if T cells were studied ex vivo after in vivo treatment with the MIF antagonist compound. To measure ex vivo antigen-specific T cell activation, draining lymph nodes from arthritic limbs or spleens were removed from mice with murine antigen induced arthritis, induced as above with mBSA, at day 28 after first immunisation and a single cell suspension prepared in DMEM containing 5% FCS and 0.05% 2-mercaptoethanol. 1×10^5 cells/200 μl were cultured in triplicate in the presence or absence of mBSA (0.1, 1.0, 10 μg/ml) in 96-well plates for 48 hours (37° C., 5% CO2.) The T cell proliferation response was determined by measuring ^3H-thymidine incorporation during the final 18 hr. The cells were harvested and radioactivity incorporation into the DNA was measured with a Wallac 1409 liquid scintillation counter. The means of each triplicate culture were calculated. Each experiment comprised at least three individual animals and the results presented represent the mean±SEM of groups of animals in each experiment. The percentage inhibition of T cell proliferation was calculated using the result of the […] incorporation of cells from compound-treated animals subtracted from the ^3H-thymidine incorporation of cells from vehicle-treated animals.

[4] = tested on: murine peritoneal macrophage cytokine production; experiment: inhibition of peritoneal macrophage cytokine production (ELISA); type: cell-based, mice; conditions: Mus musculus
Description: C57BL6/J male mice were injected intraperitoneally with 2 ml of thioglycollate. Five (5) days later peritoneal macrophages were collected by lavaging the peritoneum of anaesthetized mice with 3 ml of cold Hanks buffered saline solution. Cells from several mice were pooled, washed and re-suspended in DMEM supplemented with 5% FCS. Cells were plated in 96 well plastic tissue culture plates at 1×10^5 cells/well. Cells were treated with compound or vehicle for 1 hour in a 5% CO2 incubator at 37° C. Cells were then treated with LPS (10-100 ng/ml) or recombinant human interferon-γ (10 units/ml) and incubated for 24 hours. After 24 hours, 50 μl of supernatant from each well was carefully removed and transferred to ELISA plates. The concentration of interleukin 1 (IL-1) or interleukin 6 (IL-6) was measured by ELISA. The concentration of compound at which LPS- or interferon-γ-induced cytokine release was suppressed by 50% compared to vehicle-only-treated cells (EC50) was calculated using Prism® software. Table 9 lists the EC50 for two compounds tested in this assay.

[5] = tested on: murine antigen induced arthritis; experiment: murine antigen-induced arthritis, histological score; type: in vivo, mice
Description: Antigen-induced arthritis was induced in mice. C57BL6/J male mice, aged 7-10 weeks old, were immunized on day 0 with 200 μg methylated BSA (mBSA) emulsified in 200 μl of Freund's complete adjuvant (FCA) injected subcutaneously into the flank skin. Mice were treated with compound 5, administered by intraperitoneal injection, once per 24 hours at a dose of 15 mg/kg body weight. After seven days, mice received 100 μg mBSA and 100 μl FCA by intradermal injection at the base of the tail. After a further 14 days, arthritis was induced by intra-articular injection of 30 μg mBSA in 10 μl of sterile saline into the left knee, the right knee being injected with sterile saline alone.
Arthritis was analysed histologically at day 28 after first immunisation. Knee joints were dissected and fixed in 10% buffered formalin for 7 days. Fixed tissues were decalcified for 3 weeks in 15% ethylene-diamine-tetra-acetic acid (EDTA), dehydrated and embedded in paraffin. Sagittal sections (5 μm) of the knee joint were stained with Safranin-O and counterstained with fast green/iron hematoxylin. Histological sections were scored from 0 to 3 for four parameters: Synovitis was defined as hyper-cellularity of the synovium including pannus formation. Joint space exudate was identified as leukocytes, discretely or in aggregates, in the joint space. Cartilage degradation was defined as the loss of Safranin-O staining of articular cartilage (0=full stained cartilage, 3=totally unstained cartilage). Bone damage was defined as the extent and depth of the subchondral bone invasion by pannus. A total score was also generated from the sum of these four parameters (maximum 12).

[6] = tested on: IL-1 induced phosphorylation of ERK; experiment: IL-1 induced phosphorylation (activation) of ERK, Western blotting; type: cell-based, human; conditions: dexamethasone 10^-9 M alone; human dermal fibroblasts, IL-1 0.1 ng/ml, 30 minutes
Description: S112 human dermal fibroblasts cultured in RPMI (serum-free) medium were stimulated with recombinant human IL-1 0.1 ng/ml, as described herein, for 30 minutes, with or without the addition of dexamethasone 10^−9M or benzimidazol-2-one-5-pentanoate (compound 5) (50 μM). The phosphorylation (activation) of ERK was assessed using Western blotting with a mAb specific for the phosphorylated (activated) form of ERK. In brief, cells were disrupted by repeated aspiration through a 21-gauge needle. After incubation on ice for 10 min and microcentrifugation at 3000 rpm for 15 min (4° C.), the supernatants were removed, the protein concentration was determined, and the lysates were stored at −80° C. Equal amounts of cellular proteins were fractionated on 10% SDS-polyacrylamide electrophoresis gels and transferred to polyvinylidene difluoride membranes. Immunoblotting was performed using antibodies directed against phospho-p44/42 (ERK) and total p44142 according to the manufacturer's instructions. The intensity of ERK activation is proportional to the size and optical density (darkness) of the resulting blots. Total ERK blots serve as a loading control, such that changes in phosphorylated ERK represent changes in phosphorylation and not in total ERK protein.

Row | Structure (SMILES) | EC50 ([1]; mBSA 10 μg/ml) | EC50 ([1]; mBSA 50 μg/ml) | inhibition at 1 µM ([2]; Homo sapiens, Fibroblast, compound 1 μM, S112 cells, IL-1 0.1 ng/ml, 6 hours) | inhibition at 10 µM ([2]; Homo sapiens, Fibroblast, compound 10 μM, S112 cells, IL-1 0.1 ng/ml, 6 hours) | inhibition at 50 µM ([2]; Homo sapiens, Fibroblast, compound 50 μM, S112 cells, IL-1 0.1 ng/ml, 6 hours, read-out: % inhibition of IL-1-induced COX-2 expression) | inhibition at 100 µM ([2]; Homo sapiens, Fibroblast, compound 100 μM, S112 cells, IL-1 0.1 ng/ml, 6 hours) | ex vivo splenic T cell proliferation in response to mBSA ([3]; FIG. 11b, table 7, vs vehicle) | % inhibition of ex vivo splenic T cell activation ([3]; [mBSA] 10 μg/mL) | EC50 ([4]; Interferon-γ 10 units/ml, read-out: EC50, IL-6 release) | EC50 ([4]; [LPS] 100 ng/mL, read-out: EC50, IL-1 release) | Total arthritis score (mean ± SEM) ([5]; maximum 12, vehicle 6.25 ± 0.2) | severity of murine antigen induced arthritis ([5]; mouse, in vivo) | % Inhibition of IL-1 induced COX-2 expression ([2]; Table 2 experiment, dexamethasone 10^-9 M alone) | ERK activation by IL-1 [6]
1 | O=C(NCCc1ccc(O)c(O)c1)c1ccc2[nH]c(=O)[nH]c2c1 [Compound 13, N-(3,4-dihydroxyphenethyl)-2-oxo-2,3-dihydro-1H-1,3-benzimidazole-5-carboxamide] | 53.3 µM | 71.7 µM | 9.6% | 14.1% | 32.2% | 29.9% | reduced proliferative responses | 28% | 9.82 µM | 16.7 µM | 5.17 ± 1.9 | inhibitory effect |  | 
2 | C[C@@H]1C[C@H]2[C@@H]3CCC4=CC(=O)C=C[C@]4(C)[C@@]3(F)[C@@H](O)C[C@]2(C)[C@@]1(O)C(=O)CO [Dexamethasone, dexamethasone] |  |  |  |  |  |  |  |  |  |  |  |  | 46.8% | does not inhibit; also recorded: not inhibited
